Data as given in patent US7045627B2, “Dichlorinated heterocyclic compounds and methods of synthesis” (R.T. Alamo Ventures I, LLC, priority 2002, dated 2006).

Tested on: PDE1
Assay: PDE1 enzyme inhibition assay
Assay type: biochemical
Conditions: PDE1 partially purified from bovine heart; 25° C.; varying concentrations; 1% DMSO vehicle
Text: In this example, dichloroflosequinan was subjected to biochemical enzyme assays to determine its respective percent inhibition of a variety of phosphodiesterases (PDE1–PDE6). The methods used have been adapted from those described in the scientific literature, see Hidaka and Asano “Human blood platelet 3′:5′ cyclic nucleotide phosphodiesterase. Isolation of low-Km and high Km phosphodiesterase.” Biochem. Biophys. […] Unhydrolyzed cAMP was bound to AGI-X2 resin, and the remaining [^3H]adenosine in the aqueous phase was quantitated by scintillation counting. • PDE2: PDE2 partially purified from human platelets was used. […] Unhydrolyzed cAMP was bound to AGI-X2 resin, and the remaining [^3H]adenosine in the aqueous phase was quantitated by scintillation counting. • PDE3: PDE3 partially purified from human platelets was used. […] Unhydrolyzed cAMP was bound to AGI-X2 resin, and the remaining [^3H]adenosine in the aqueous phase was quantitated by scintillation counting. • PDE4: PDE4 partially purified from human U-937 pronocytic cells was used. […] Unhydrolyzed cAMP was bound to AGI-X2 resin, and the remaining [^3H]adenosine in the aqueous phase was quantitated by scintillation counting. • PDE5: PDE5 partially purified from human platelets was used. […]

Cn1cc([S+]([O-])C(Cl)Cl)c(=O)c2ccc(F)cc21 (stereo not shown) [dichloroflosequinan, 3-dichloromethylsulfinyl-7-fluoro-1-methyl-4-quinolone]
inhibition of PDE1: greater than 50%
